Legend:
[1] = test system: downmodulation of MHC-I molecules expressed on the surface of HIV infected SupT1 cells; conditions: read-out: EC50 for inhibition of MHC-I downmodulation utilizing the R1 parameter; SupT1 cells infected with HIV-1; compounds added 20 h after infection, 24 h incubation
[2] = test system: uninfected SupT1 cells; test: Compound-induced toxicity, XTT cell viability assay; conditions: read-out: CC50 (concentration reducing cell viability by 50%), XTT method, 48 h, Tables 3 and 4

Row | Structure (SMILES) | EC50 [1] [nM] | CC50 [2] [nM]
1 | CC1(C)Cc2cccc(CCC(=O)Nc3nc4ccccc4s3)c2O1 [Compound 108, N-(Benzo[d]thiazol-2-yl)-3-(2,2-dimethyl-2,3-dihydrobenzofuran-7-yl) propanamide] | 1370 | > 100000
2 | Cc1ccccc1CCC(=O)N(C)c1nc2c(s1)CCCC2 [Compound 109, N-Methyl-N-(4,5,6,7-tetrahydrobenzo[d]thiazol-2-yl)-3-(o-tolyl) propanamide] | 2100 | > 125000

Source: US20220411419A1, “SMALL MOLECULE MODULATORS OF MHC-I” (RetroVirox, Inc., priority 2018, published 2022)
